Source: PubChem BioAssay AID248 (DTP/NCI, 2004)
“And” between values parts separate entries of the source, which are not always exact repeats. Identical values can stand only once. Toxic doses and inconclusive results are not listed. Cut-off read from the data, not from the text of the source: active = T/C of 150% or more; inactive = T/C below 125%.

System: L1210 leukemia ip in BDF1 mice, survival T/C
Assay: NCI In Vivo Anticancer Drug Screen. Data for tumor model L1210 Leukemia (intraperitoneal) in B6D2F1 (BDF1) mice
Details: endpoint: mean survival time, higher = longer survival
How it was run: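 Transplantable tumor model; survival measured in treated vs vehicle control mice. Value = treated/control.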

[1] = dose: 100.0 mg/kg/injection, schedule: Q04DX002 (ip), vehicle: Klucel (hydroxypropylcellulose) (HPC)
[2] = dose: 200.0 mg/kg/injection, schedule: Q04DX002 (ip), vehicle: Klucel (hydroxypropylcellulose) (HPC)
[3] = dose: 100.0 mg/kg/injection, schedule: Q04DX003 (ip), vehicle: Klucel (hydroxypropylcellulose) (HPC)
[4] = dose: 200.0 mg/kg/injection, schedule: Q04DX003 (ip), vehicle: Klucel (hydroxypropylcellulose) (HPC)
[5] = dose: 50.0 mg/kg/injection, schedule: Q01DX001 (ip), vehicle: carboxymethylcellulose (CMC)
[6] = dose: 100.0 mg/kg/injection, schedule: Q01DX001 (ip), vehicle: carboxymethylcellulose (CMC)
[7] = dose: 200.0 mg/kg/injection, schedule: Q01DX001 (ip), vehicle: carboxymethylcellulose (CMC)
[8] = dose: 400.0 mg/kg/injection, schedule: Q01DX001 (ip), vehicle: carboxymethylcellulose (CMC)
[9] = dose: 100.0 mg/kg/injection, schedule: Q04DX003 (ip), vehicle: saline with Tween-80
[10] = dose: 200.0 mg/kg/injection, schedule: Q04DX003 (ip), vehicle: saline with Tween-80
[11] = dose: 400.0 mg/kg/injection, schedule: Q04DX003 (ip), vehicle: saline with Tween-80
[12] = dose: 100.0 mg/kg/injection, schedule: Q01DX001 (ip), vehicle: saline
[13] = dose: 100.0 mg/kg/injection, schedule: Q01DX009 (ip), vehicle: Klucel (hydroxypropylcellulose) (HPC)
[14] = dose: 200.0 mg/kg/injection, schedule: Q01DX009 (ip), vehicle: Klucel (hydroxypropylcellulose) (HPC)
[15] = dose: 400.0 mg/kg/injection, schedule: Q01DX001 (ip), vehicle: saline
[16] = dose: 400.0 mg/kg/injection, schedule: Q01DX009 (ip), vehicle: Klucel (hydroxypropylcellulose) (HPC)
[17] = dose: 400.0 mg/kg/injection, schedule: Q04DX003 (ip), vehicle: Klucel (hydroxypropylcellulose) (HPC)
[18] = dose: 200.0 mg/kg/injection, schedule: Q01DX001 (ip), vehicle: saline

Measured: T/C

O=C(O)CC(CO)C(c1ccccc1)c1ccccc1 (stereo not given)
inactive: [1] 97 % of control | [2] 97 % of control

Cc1ccc(S(=O)(=O)OC2CCC(C(C)(C)C)C(Cl)C2)cc1 (stereo not given)
inactive: dose: 100.0 mg/kg/injection, schedule: Q01DX001 (ip), vehicle: Klucel (hydroxypropylcellulose) (HPC) 103 % of control | dose: 200.0 mg/kg/injection, schedule: Q01DX001 (ip), vehicle: Klucel (hydroxypropylcellulose) (HPC) 87 % of control | dose: 400.0 mg/kg/injection, schedule: Q01DX001 (ip), vehicle: Klucel (hydroxypropylcellulose) (HPC) 94 % of control

CC(C)c1ccc(/C=N\NC(=O)N/N=C/c2ccc(C(C)C)cc2)cc1
inactive: [3] 93 % of control | [4] 88 % of control

Cc1nnc(N(C)C)nc1C
inactive: dose: 100.0 mg/kg/injection, schedule: Q01DX001 (ip), vehicle: saline with Tween-80 98 % of control | dose: 200.0 mg/kg/injection, schedule: Q01DX001 (ip), vehicle: saline with Tween-80 97 % of control | dose: 400.0 mg/kg/injection, schedule: Q01DX001 (ip), vehicle: saline with Tween-80 108 % of control

CCCCCC/S(C)=N\S(=O)(=O)c1ccc(Br)cc1 (stereo not given)
inactive: [5] 100 % of control | [6] 103 % of control | [7] 97 % of control | [8] 114 % of control

CC(=C(C#N)C#N)c1csc2ccccc12
inactive: [6] 97 % of control | [7] 87 % of control | [8] 92 % of control

O=C1c2cc(F)ccc2-c2cccc(F)c21
inactive: [5] 102 % of control | [6] 108 % of control | [7] 104 % of control | [8] 98 % of control

CC(C)CC(NC(=O)OC(C)(C)C)C(=O)O (stereo not given)
inactive: dose: 100.0 mg/kg/injection, schedule: Q01DX001 (ip), vehicle: other 104 % of control | dose: 200.0 mg/kg/injection, schedule: Q01DX001 (ip), vehicle: other 93 % of control | dose: 400.0 mg/kg/injection, schedule: Q01DX001 (ip), vehicle: other 98 % of control

O=C1c2ccccc2C(=O)N1OCc1cc(Cl)sc1Cl
inactive: [9] 97 % of control | [10] 96 % of control | [11] 104 % of control

NC(=S)N/N=C/c1ccc(F)cn1
inactive: dose: 1.56 mg/kg/injection, schedule: Q01DX009 (ip), vehicle: saline with Tween-80 99 % of control | dose: 3.13 mg/kg/injection, schedule: Q01DX009 (ip), vehicle: saline with Tween-80 106 % of control and 115 % of control | dose: 5.54 mg/kg/injection, schedule: Q01DX009 (ip), vehicle: saline with Tween-80 108 % of control | dose: 6.25 mg/kg/injection, schedule: Q01DX009 (ip), vehicle: saline with Tween-80 119 % of control | dose: 6.25 mg/kg/injection, schedule: Q04DX002 (ip), vehicle: saline with Tween-80 104 % of control | dose: 8.32 mg/kg/injection, schedule: Q01DX009 (ip), vehicle: saline with Tween-80 114 % of control | dose: 12.5 mg/kg/injection, schedule: Q01DX009 (ip), vehicle: saline with Tween-80 119 % of control and 124 % of control | dose: 12.5 mg/kg/injection, schedule: Q04DX002 (ip), vehicle: saline with Tween-80 112 % of control | dose: 18.8 mg/kg/injection, schedule: Q01DX009 (ip), vehicle: saline with Tween-80 98 % of control | dose: 22.0 mg/kg/injection, schedule: Q01DX001 (ip), vehicle: saline with Tween-80 105 % of control | dose: 25.0 mg/kg/injection, schedule: Q04DX002 (ip), vehicle: saline with Tween-80 97 % of control | dose: 33.0 mg/kg/injection, schedule: Q01DX001 (ip), vehicle: saline with Tween-80 107 % of control

NC(=S)N/N=C/c1ccc(O)c(C(=O)O)c1
inactive: dose: 15.0 mg/kg/injection, schedule: Q01DX Z (ip), vehicle: methylcellulose (MC) 97 % of control | dose: 30.0 mg/kg/injection, schedule: Q01DX Z (ip), vehicle: methylcellulose (MC) 95 % of control | dose: 60.0 mg/kg/injection, schedule: Q01DX Z (ip), vehicle: methylcellulose (MC) 95 % of control | dose: 120.0 mg/kg/injection, schedule: Q01DX Z (ip), vehicle: methylcellulose (MC) 97 % of control | dose: 250.0 mg/kg/injection, schedule: Q01DX Z (ip), vehicle: methylcellulose (MC) 91 % of control | dose: 375.0 mg/kg/injection, schedule: Q01DX Z (ip), vehicle: methylcellulose (MC) 89 % of control

O=C(O)c1cccc2c1ccc1ccccc12
inactive: dose: 75.0 mg/kg/injection, schedule: Q04DX003 (ip), vehicle: saline 104 % of control | dose: 150.0 mg/kg/injection, schedule: Q04DX003 (ip), vehicle: saline 102 % of control | dose: 300.0 mg/kg/injection, schedule: Q04DX003 (ip), vehicle: saline 100 % of control

S=P(c1ccccc1)(N1CCN(c2ccc(Cl)cc2)CC1)N1CCN(c2ccc(Cl)cc2)CC1
inactive: [12] 88 % of control | [13] 102 % of control | [3] 95 % of control | [14] 91 % of control | [15] 90 % of control | [16] 93 % of control | [17] 92 % of control

C=CCc1ccc(OCCNC(=O)Nc2ccc(C)cc2[N+](=O)[O-])c(OC)c1
inactive: dose: 50.0 mg/kg/injection, schedule: Q01DX009 (ip), vehicle: Klucel (hydroxypropylcellulose) (HPC) 87 % of control | [13] 98 % of control | [3] 91 % of control | [14] 98 % of control | [4] 96 % of control | [17] 96 % of control

CCC(C)NC(=O)NC (stereo not given)
inactive: [13] 100 % of control | [14] 97 % of control | [16] 101 % of control

CCOC(=O)/C(C#N)=C\c1ccc2n1Cc1cc3c(cc1N(C(C)=O)C2)OCO3
inactive: dose: 25.0 mg/kg/injection, schedule: Q04DX002 (ip), vehicle: Klucel (hydroxypropylcellulose) (HPC) 102 % of control | dose: 50.0 mg/kg/injection, schedule: Q04DX002 (ip), vehicle: Klucel (hydroxypropylcellulose) (HPC) 95 % of control | [1] 98 % of control

Cn1cnc2c([N+](C)(C)C)ncnc21
inactive: dose: 11.0 mg/kg/injection, schedule: Q04DX003 (ip), vehicle: saline 100 % of control | dose: 22.0 mg/kg/injection, schedule: Q04DX003 (ip), vehicle: saline 104 % of control | dose: 44.0 mg/kg/injection, schedule: Q04DX003 (ip), vehicle: saline 98 % of control | dose: 90.0 mg/kg/injection, schedule: Q04DX003 (ip), vehicle: saline 100 % of control | dose: 100.0 mg/kg/injection, schedule: Q04DX003 (ip), vehicle: saline 95 % of control and 101 % of control | dose: 200.0 mg/kg/injection, schedule: Q04DX003 (ip), vehicle: saline 104 % of control

CC12CCC(/C(=N/O)C1=O)C2(C)C (stereo not given)
inactive: [1] 106 % of control | [2] 110 % of control | dose: 400.0 mg/kg/injection, schedule: Q04DX002 (ip), vehicle: Klucel (hydroxypropylcellulose) (HPC) 103 % of control

CC1=CCC2C(C)(C)CCCC2(C)C1CO (stereo not given)
inactive: dose: 75.0 mg/kg/injection, schedule: Q01DX001 (ip), vehicle: saline 98 % of control | dose: 150.0 mg/kg/injection, schedule: Q01DX001 (ip), vehicle: saline 100 % of control | dose: 300.0 mg/kg/injection, schedule: Q01DX001 (ip), vehicle: saline 95 % of control

O=C(O)c1ccc(CC2CC3CCC2C3)cc1 (stereo not given)
inactive: [9] 93 % of control | [10] 91 % of control | [11] 88 % of control

Cc1ccc(S(=O)(=O)N(CC(=O)c2ccccc2)c2ccc(Br)cc2)cc1
inactive: [12] 89 % of control | [18] 86 % of control | [15] 86 % of control

CCN(C(=O)c1ccc2c3c(ccc(C(=O)N(CC)c4ccccc4)c13)CC2)c1ccccc1
inactive: [12] 104 % of control | [18] 104 % of control | [15] 95 % of control

COc1ccc(NC(=O)Nc2cc(C(F)(F)F)ccc2Cl)cc1
inactive: [9] 88 % of control | [10] 91 % of control | [11] 86 % of control

C/C(=N/N(C)C)c1ccc(C)cc1
inactive: [12] 93 % of control | dose: 100.0 mg/kg/injection, schedule: Q01DX009 (ip), vehicle: saline 91 % of control | [18] 97 % of control | [15] 105 % of control
